# Earlier results as cited in US11692003B2, “Mithramycin derivatives having increased selectivity and anti-cancer activity” (University of Kentucky Research Foundation, priority 2018, dated 2023).
# System: several cancer cell lines
smiles,measurement,value
"CO[C@H](C(=O)C(C)=O)[C@@H]1Cc2cc3cc(OC4C[C@@H](OC5C[C@@H](O)[C@H](O)C(C)O5)[C@H](O)C(C)O4)c(C)c(O)c3c(O)c2C(=O)[C@H]1OC1C[C@@H](OC2C[C@@H](OC3C[C@](C)(O)[C@H](O)C(C)O3)[C@@H](O)C(C)O2)[C@H](O)C(C)O1 (some centres unmarked) [MTM SDK, mithramycin SDK]",activity against several cancer cell lines compared to the parent MTM,increased activity
"CO[C@H](C(O)C(C)=O)[C@@H]1Cc2cc3cc(OC4C[C@@H](OC5C[C@@H](O)[C@H](O)C(C)O5)[C@H](O)C(C)O4)c(C)c(O)c3c(O)c2C(=O)[C@H]1OC1C[C@@H](OC2C[C@@H](OC3C[C@](C)(O)[C@H](O)C(C)O3)[C@@H](O)C(C)O2)[C@H](O)C(C)O1 (some centres unmarked) [MTM SK, Mithramycin SK]",activity against several cancer cell lines compared to the parent MTM,increased activity
